Experimental data as given in patent publication US20150073021A1 (priority 2013, published 2015).

Assays:
bovine serum albumin = bovine serum albumin (Bos taurus, UniProt P02769); conditions: cited from earlier work
[1] = tested on: rats expressing pathologically excessive levels of MMPs; conditions: rat, in vivo; cited from earlier work
humans = conditions: in vivo; cited from earlier work
Bacillus anthracis = conditions: in vivo
cell and tissue culture = conditions: cited from earlier work

Chain of bovine serum albumin (P02769 25-607): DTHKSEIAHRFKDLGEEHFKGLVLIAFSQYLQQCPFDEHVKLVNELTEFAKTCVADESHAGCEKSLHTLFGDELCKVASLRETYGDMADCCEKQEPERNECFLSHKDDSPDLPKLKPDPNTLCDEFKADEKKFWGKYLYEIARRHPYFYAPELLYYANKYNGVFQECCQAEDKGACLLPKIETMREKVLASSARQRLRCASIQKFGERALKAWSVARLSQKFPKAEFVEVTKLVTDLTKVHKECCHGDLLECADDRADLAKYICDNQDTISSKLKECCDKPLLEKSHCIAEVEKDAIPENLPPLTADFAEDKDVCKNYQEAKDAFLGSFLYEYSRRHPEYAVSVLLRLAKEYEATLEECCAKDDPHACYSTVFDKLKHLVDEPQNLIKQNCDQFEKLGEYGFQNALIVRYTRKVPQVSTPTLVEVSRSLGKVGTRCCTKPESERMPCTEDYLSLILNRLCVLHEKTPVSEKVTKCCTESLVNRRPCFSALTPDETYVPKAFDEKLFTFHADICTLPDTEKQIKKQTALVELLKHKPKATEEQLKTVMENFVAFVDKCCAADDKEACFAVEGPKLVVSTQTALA

Row | Structure (SMILES) | binding to bovine serum albumin (bovine serum albumin) | toxicity after oral gavage [1] | toxicity in humans (humans) | treatment of subject infected with Bacillus anthracis (Bacillus anthracis) | toxicity compared to the parent compound curcumin (cell and tissue culture)
1 | COc1cc(/C=C/C(=O)CC(=O)/C=C/c2ccc(O)c(OC)c2)ccc1O [curcumin, reference compound] | bind fairly strongly | no evidence of toxicity | virtually no toxicity |  | 
2 | O=C(/C=C/c1ccc(O)cc1)C(C(=O)/C=C/c1ccc(O)cc1)C(=O)Nc1ccccc1 [CMC2.24] | bind fairly strongly | no evidence of toxicity |  | effective to treat the subject | even less toxicity
